ChEMBL document CHEMBL1201862, “PubChem BioAssay data set” (2004)
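Method: 48-hour compound exposure of cells in 96-well plates, five concentrations, linear interpolation of endpoints. The concentration for 50% growth inhibition is given as GI50.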 Active and inactive are the calls of the source. Cut-off read from the data, not from the text of the source: active = GI50 up to about 1.1 µM and inactive = higher.

Experiments:
Test in all cases: inhibition of tumour cell growth, NCI panel, 48 h
SK-OV-3 = system: SK-OV-3
UO-31 = system: UO-31
A549 = system: A549
SF-295 = system: SF-295
SK-MEL-5 = system: SK-MEL-5
UACC-62 = system: UACC-62
A498 = system: A498
COLO 205 = system: COLO 205
NCI-H460 = system: NCI-H460
HOP-18 = system: HOP-18
HT-29 = system: HT-29
SNB-19 = system: SNB-19
SNB-78 = system: SNB-78
IGROV-1 = system: IGROV-1
SK-MEL-2 = system: SK-MEL-2
KM-20L2 = system: KM-20L2
HL-60 = system: HL-60
M14 = system: M14
ACHN = system: ACHN
TK-10 = system: TK-10

Measured: GI50

CCOC(=O)CNC(=O)N(CC)C12CC3CC(CC(C3)C1)C2
inactive: SK-OV-3 123 µM | UO-31 149 µM | A549 166 µM | SF-295 136 µM | SK-MEL-5 104 µM | UACC-62 97.5 µM | A498 115 µM | COLO 205 110 µM | NCI-H460 154 µM | HOP-18 179 µM | HT-29 132 µM | SNB-19 153 µM | SNB-78 166 µM | IGROV-1 184 µM | SK-MEL-2 103 µM | KM-20L2 117 µM | HL-60 107 µM

NC(=S)N/N=C/c1ccc(OC(=O)COc2ccccc2Cl)cn1
inactive: SK-OV-3 > 67 µM | UO-31 36.8 µM | A549 53.6 µM | SF-295 > 62.7 µM | SK-MEL-5 24.8 µM | UACC-62 14.6 µM | A498 > 72.8 µM | COLO 205 44.6 µM | NCI-H460 35.2 µM | HOP-18 39.3 µM | HT-29 48 µM | SNB-19 47.8 µM | SNB-78 > 80.9 µM | IGROV-1 > 93.1 µM | SK-MEL-2 42.3 µM | KM-20L2 40 µM | HL-60 18.4 µM

CSc1sc(=S)sc1SC
inactive: SK-OV-3 > 100 µM | UO-31 > 100 µM | A549 > 100 µM | SF-295 > 100 µM | SK-MEL-5 > 100 µM | UACC-62 > 100 µM | A498 > 100 µM | COLO 205 > 100 µM | NCI-H460 > 100 µM | HOP-18 > 100 µM | HT-29 > 100 µM | SNB-19 > 100 µM | SNB-78 > 100 µM | IGROV-1 > 100 µM | SK-MEL-2 > 31.6 µM | KM-20L2 > 100 µM | HL-60 > 31.6 µM

C=CC(OCC)(OCC)OCC
inactive: M14 > 100 µM | SK-OV-3 > 100 µM | UO-31 > 100 µM | A549 > 100 µM | SF-295 > 100 µM | SK-MEL-5 > 100 µM | UACC-62 > 100 µM | A498 > 100 µM | COLO 205 > 100 µM | NCI-H460 > 100 µM | HOP-18 > 100 µM | HT-29 > 100 µM | ACHN > 100 µM | SNB-19 > 100 µM | TK-10 > 100 µM | SNB-78 > 100 µM | IGROV-1 > 100 µM | SK-MEL-2 > 100 µM | KM-20L2 > 100 µM | HL-60 > 100 µM

C=C1C(=O)OC2CC(C)C3C4OC4C(O)C3(C)C(O)C12 (centres undefined)
inactive: SK-OV-3 44.9 µM | UO-31 80.2 µM | A549 53.5 µM | SF-295 41 µM | SK-MEL-5 38.5 µM | UACC-62 12.6 µM | A498 16 µM | COLO 205 16.3 µM | NCI-H460 19 µM | HOP-18 24.4 µM | HT-29 27.5 µM | SNB-19 44.7 µM | SNB-78 13.5 µM | IGROV-1 18.6 µM | SK-MEL-2 25.9 µM | KM-20L2 14.1 µM | HL-60 13.8 µM

NC(=O)Nc1cc(O)ccc1/N=N/c1ccc(S(=O)(=O)Nc2ccccn2)cc1
inactive: M14 > 100 µM | SK-OV-3 > 100 µM | UO-31 > 100 µM | A549 > 100 µM | SF-295 > 100 µM | SK-MEL-5 > 100 µM | UACC-62 > 100 µM | A498 > 100 µM | COLO 205 > 100 µM | NCI-H460 > 100 µM | HOP-18 > 100 µM | HT-29 > 100 µM | ACHN > 100 µM | SNB-19 > 100 µM | TK-10 > 100 µM | SNB-78 > 100 µM | IGROV-1 > 100 µM | SK-MEL-2 > 100 µM | KM-20L2 > 100 µM | HL-60 > 100 µM

CCC1OC(=O)C(C)C(OC2CC(C)(O)C(O)C(C)O2)C(C)C(O)C(C)(O)CC(C)C(=O)C(C)C(O)C1C (centres undefined)
inactive: SK-OV-3 > 300 µM | UO-31 > 300 µM | A549 > 300 µM | SF-295 > 300 µM | SK-MEL-5 > 300 µM | UACC-62 > 300 µM | A498 > 267 µM | COLO 205 > 300 µM | NCI-H460 > 300 µM | HOP-18 > 300 µM | HT-29 > 300 µM | SNB-19 > 300 µM | SNB-78 204 µM | IGROV-1 > 300 µM | SK-MEL-2 > 300 µM | KM-20L2 > 300 µM | HL-60 > 300 µM

COC(=O)C1=CC[C@@H]2C(C(=O)O)=CO[C@@H](OC3OC(CO)C(O)C(O)C3O)[C@H]12 (some centres undefined)
inactive: SK-OV-3 > 300 µM | UO-31 > 300 µM | A549 > 300 µM | SF-295 > 150 µM | SK-MEL-5 > 151 µM | UACC-62 > 300 µM | A498 > 30 µM | COLO 205 > 300 µM | NCI-H460 > 300 µM | HOP-18 13.7 µM | HT-29 > 300 µM | SNB-19 > 300 µM | SNB-78 > 142 µM | IGROV-1 > 300 µM | SK-MEL-2 > 300 µM | KM-20L2 > 300 µM | HL-60 > 300 µM

CCC/C=C/C=C\C(=O)O[C@@H]1[C@@H](C)[C@]2(O)[C@@H]3C=C(C)C(=O)[C@H]3CC(COC(C)=O)=C[C@H]2[C@@H]2C(C)(C)[C@]12OC(C)=O
inactive: SK-OV-3 81.7 µM | UO-31 46.5 µM | A549 4.59 µM | SF-295 6.64 µM | SK-MEL-5 16.4 µM | UACC-62 35.2 µM | A498 1.99 µM | COLO 205 1.74 µM | NCI-H460 1.61 µM | HOP-18 28 µM | HT-29 40 µM | SNB-19 54.1 µM | SNB-78 44.9 µM | IGROV-1 48.4 µM | SK-MEL-2 43.3 µM | KM-20L2 44.4 µM | HL-60 2.33 µM

COc1cc(OC)c(SSCCCCS(=O)O)c(OC)c1
inactive: M14 14.3 µM | SK-OV-3 23.8 µM | UO-31 18.3 µM | A549 19 µM | SF-295 13.6 µM | SK-MEL-5 10.4 µM | UACC-62 13.7 µM | A498 14.6 µM | COLO 205 17.5 µM | NCI-H460 17.1 µM | HOP-18 18 µM | HT-29 16.4 µM | ACHN 16.1 µM | SNB-19 17.5 µM | TK-10 21.3 µM | SNB-78 12.1 µM | IGROV-1 21 µM | SK-MEL-2 19.5 µM | KM-20L2 18.7 µM | HL-60 3.91 µM
